Test results taken from ChEMBL document CHEMBL1201862, “PubChem BioAssay data set” (2004).
Calls of active or inactive are those of the source.

Assays:
[1] = target: T1, ORF 73 (Human herpesvirus 8, UniProt O40947); assay: KSHV LANA DNA-binding disruption – biochemical, fluorescence polarization, cherry-picked samples, dose response (AID 504725); set-up: species or system Human gammaherpesvirus 8;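 also: fluorescence polarization of a labeled DNA duplex reporting LANA DNA binding; potency is for inhibitors that block LANA binding to the DNA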
T1 sequence (O40947 whole entry): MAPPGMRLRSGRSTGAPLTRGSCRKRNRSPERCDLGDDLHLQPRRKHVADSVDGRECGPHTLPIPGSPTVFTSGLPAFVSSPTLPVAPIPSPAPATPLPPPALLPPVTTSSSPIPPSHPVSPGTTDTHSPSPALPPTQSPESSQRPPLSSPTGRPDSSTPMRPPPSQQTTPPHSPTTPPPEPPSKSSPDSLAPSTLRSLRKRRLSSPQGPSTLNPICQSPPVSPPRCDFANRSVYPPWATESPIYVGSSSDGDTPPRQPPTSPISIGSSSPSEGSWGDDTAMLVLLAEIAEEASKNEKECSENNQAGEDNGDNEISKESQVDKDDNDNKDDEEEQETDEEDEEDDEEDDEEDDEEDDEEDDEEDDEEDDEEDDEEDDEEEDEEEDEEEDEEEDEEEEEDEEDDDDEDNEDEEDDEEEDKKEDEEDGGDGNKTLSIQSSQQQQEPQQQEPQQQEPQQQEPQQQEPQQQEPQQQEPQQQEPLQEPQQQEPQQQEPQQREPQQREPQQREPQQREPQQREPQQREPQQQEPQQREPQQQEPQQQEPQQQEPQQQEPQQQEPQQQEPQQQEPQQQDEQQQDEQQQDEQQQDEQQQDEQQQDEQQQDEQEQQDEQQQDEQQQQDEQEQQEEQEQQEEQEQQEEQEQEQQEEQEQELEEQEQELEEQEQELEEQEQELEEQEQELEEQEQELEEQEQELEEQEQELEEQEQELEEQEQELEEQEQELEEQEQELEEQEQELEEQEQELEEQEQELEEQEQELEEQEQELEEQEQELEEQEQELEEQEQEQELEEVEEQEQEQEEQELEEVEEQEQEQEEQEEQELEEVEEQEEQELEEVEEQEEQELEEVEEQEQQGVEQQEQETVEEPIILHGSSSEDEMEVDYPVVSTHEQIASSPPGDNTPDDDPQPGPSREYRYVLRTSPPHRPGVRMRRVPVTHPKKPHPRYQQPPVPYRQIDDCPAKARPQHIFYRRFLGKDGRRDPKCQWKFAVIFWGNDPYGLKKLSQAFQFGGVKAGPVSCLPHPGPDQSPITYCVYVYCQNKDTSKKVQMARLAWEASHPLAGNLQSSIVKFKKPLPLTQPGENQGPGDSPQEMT

[2] = target: Troponin, cardiac muscle (Homo sapiens, UniProt P19429+P45379+P63316); assay: Fluorescence-based biochemical high throughput dose response assay for activators of the calcium sensitivity of cardiac Regulated Thin Filaments (RTF). [Related pubchem assays (depositor defined):AID493008, AID493018, AID504382, AID504383]; type: protein-complex assay
[3] = target: UDP-galactopyranose mutase (Mycobacterium tuberculosis, UniProt P9WIQ1); assay: Inhibitors of Mycobacterium tuberculosis UDP-galactopyranose mutase (UGM) enzyme Measured in Biochemical System Using Plate Reader - 2105-02_Inhibitor_Dose_CherryPick_Activity. [Related pubchem assays (depositor defined):AID504439]
[4] = target: T2, Insulin-degrading enzyme (Homo sapiens, UniProt P14735); assay: recombinant IDE activation, cell-free – biochemical, fluorescence polarization, counter-screen for IDE activator project, dose response (AID 588681)
T2 sequence (P14735 whole entry): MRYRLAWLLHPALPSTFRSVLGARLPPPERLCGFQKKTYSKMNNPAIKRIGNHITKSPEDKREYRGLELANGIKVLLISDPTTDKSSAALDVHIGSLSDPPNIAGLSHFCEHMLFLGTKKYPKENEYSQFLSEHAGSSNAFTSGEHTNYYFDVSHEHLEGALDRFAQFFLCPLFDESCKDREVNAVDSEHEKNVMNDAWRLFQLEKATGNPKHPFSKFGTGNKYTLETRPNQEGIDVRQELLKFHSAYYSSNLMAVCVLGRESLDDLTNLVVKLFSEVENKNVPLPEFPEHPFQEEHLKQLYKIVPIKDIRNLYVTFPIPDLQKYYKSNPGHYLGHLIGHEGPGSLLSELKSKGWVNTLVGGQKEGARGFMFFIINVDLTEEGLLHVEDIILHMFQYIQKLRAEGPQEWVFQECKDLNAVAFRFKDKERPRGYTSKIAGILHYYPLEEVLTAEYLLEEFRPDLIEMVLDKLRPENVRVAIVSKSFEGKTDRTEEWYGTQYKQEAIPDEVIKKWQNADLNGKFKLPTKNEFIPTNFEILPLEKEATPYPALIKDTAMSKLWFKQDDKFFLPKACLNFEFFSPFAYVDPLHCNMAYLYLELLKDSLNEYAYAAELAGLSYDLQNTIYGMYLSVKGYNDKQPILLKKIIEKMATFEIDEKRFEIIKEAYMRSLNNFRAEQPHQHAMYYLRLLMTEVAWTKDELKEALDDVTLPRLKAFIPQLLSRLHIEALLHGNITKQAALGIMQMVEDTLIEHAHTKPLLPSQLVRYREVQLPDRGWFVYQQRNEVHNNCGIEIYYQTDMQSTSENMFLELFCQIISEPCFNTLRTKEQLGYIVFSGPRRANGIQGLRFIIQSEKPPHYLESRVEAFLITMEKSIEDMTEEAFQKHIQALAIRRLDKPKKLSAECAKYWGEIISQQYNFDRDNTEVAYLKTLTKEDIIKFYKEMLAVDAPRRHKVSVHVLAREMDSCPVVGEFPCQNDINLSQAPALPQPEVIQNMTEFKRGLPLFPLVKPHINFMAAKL

[5] = target: T2, Insulin-degrading enzyme; assay: cellular IDE activation of Abeta substrate cleavage – fluorescence polarization, HEK cells, dose response (AID 588439); type: functional, cell-based
[6] = test system: HEK293; assay: membrane integrity loss in HEK cells – cell-based, fluorescence, cytotoxicity control for IDE activator project, dose response (AID 588440); type: functional; conditions: Homo sapiens;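 also: cytotoxicity by LDH release measuring loss of membrane integrity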
[7] = test system: HEK293; assay: optical interference in Abeta FP readout, dose response, artefact control for IDE activator project, biochemical, fluorescence polarization (AID 588442); type: functional, cell-based; conditions: Homo sapiens
[8] = target: T3, Fibrinogen beta chain (Homo sapiens, UniProt P02675); assay: Fluorescence polarization-based biochemical high throughput dose response assay to identify inhibitors that disrupt the binding of a cyclic peptide (Tn6) to the fibrin proteolytic product D-Dimer and fragment E complex [DD(E )].
[9] = target: T3, Fibrinogen beta chain; assay: Fluorescence polarization-based biochemical high throughput dose response assay to identify inhibitors that disrupt the binding of a cyclic peptide (Tn7) to the fibrin proteolytic product D-Dimer and fragment E complex [DD(E )].
[10] = target: Potassium voltage-gated channel subfamily KQT member 2 (Rattus norvegicus, UniProt O88943); assay: rat KCNQ2 current potentiators – automated patch clamp, KCNQ2-CHO cells, SAR follow-up (AID 493113); type: functional
[11] = target: Intestinal-type alkaline phosphatase (Mus musculus, UniProt P24822); assay: PubChem AID 488875; type: functional
[12] = target: T4, Intestinal-type alkaline phosphatase (Homo sapiens, UniProt P09923); assay: human intestinal alkaline phosphatase activators, dose response, biochemical, luminescence, uHTS hits (AID 463120); type: functional
[13] = target: T4, Intestinal-type alkaline phosphatase; assay: activation of human intestinal alkaline phosphatase – biochemical, luminescent, uHTS hits, set 2, dose response (AID 488817); type: functional;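 also: potency of activators that raise enzyme activity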
[14] = target: T5, Alkaline phosphatase, tissue-nonspecific isozyme (Homo sapiens, UniProt P05186); assay: activation of tissue-nonspecific alkaline phosphatase – biochemical, TNAP isozyme, human IAP uHTS hits, selectivity assay for human IAP activator project, dose response (AID 488886); type: functional;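 also: potency of compounds raising TNAP activity as a selectivity check on IAP activators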
T5 sequence (P05186 whole entry): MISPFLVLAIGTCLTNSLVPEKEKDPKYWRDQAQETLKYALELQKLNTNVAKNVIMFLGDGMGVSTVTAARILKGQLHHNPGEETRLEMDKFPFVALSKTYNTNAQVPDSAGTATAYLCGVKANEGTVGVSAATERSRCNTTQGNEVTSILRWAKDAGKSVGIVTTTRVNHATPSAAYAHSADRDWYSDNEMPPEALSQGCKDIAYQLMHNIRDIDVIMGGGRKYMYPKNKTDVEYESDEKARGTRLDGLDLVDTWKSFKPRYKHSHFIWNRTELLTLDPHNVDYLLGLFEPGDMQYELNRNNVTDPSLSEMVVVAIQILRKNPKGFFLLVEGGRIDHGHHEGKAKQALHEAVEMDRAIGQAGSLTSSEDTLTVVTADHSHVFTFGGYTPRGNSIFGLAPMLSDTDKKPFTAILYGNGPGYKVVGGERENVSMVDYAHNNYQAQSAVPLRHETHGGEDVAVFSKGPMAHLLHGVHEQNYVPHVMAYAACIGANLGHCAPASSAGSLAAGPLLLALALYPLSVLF

[15] = test system: INS1; assay: INS-1E survival protection against cytokine death – cell-based, luminescence, retest, dose response (AID 449756); type: functional; conditions: Rattus norvegicus;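 also: cell death triggered by IL-1 beta plus TNF-alpha plus IFN-gamma mixture; protective hits raise ATP signal compared with cytokine alone wells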
[16] = test system: Candida albicans; assay: antifungal activity against resistant Candida strain – CaCi-8, fluconazole, Alamar Blue, dry powder, dose response (AID 488807); type: functional, organism-based
[17] = test system: NIH3T3; assay: mammalian cell viability counter-check – Alamar Blue, fluconazole, dry powder, cytotoxicity control for antifungal drug resistance project, dose response (AID 488809); type: functional, cell-based; conditions: Mus musculus
[18] = target: Dual specificity protein phosphatase 3 (Homo sapiens, UniProt P51452); assay: SAR VHR1 Fluorescent Assay for In Vitro dose response studies Set 3. [Related pubchem assays (depositor defined):AID1654, AID1661, AID1878]; type: functional
[19] = test system: HEK293; assay: cells; type: functional, cell-based; conditions: Homo sapiens
[20] = target: Nuclear receptor subfamily 0 group B member 1 (Homo sapiens, UniProt P51843); assay: Luminescence-based cell-based high throughput dose response assay for inhibitors of the orphan nuclear receptor subfamily 0, group B, member 1 (DAX1; NR0B1). [Related pubchem assays (depositor defined):AID504766, AID504790]; type: functional
[21] = target: SUMO E1/E2 (Homo sapiens, UniProt P63279+Q9UBE0+Q9UBT2); assay: SAR analysis of SUMOylation using HTRF in an in-Vitro dose response assay. [Related pubchem assays (depositor defined):AID2006, AID2011, AID2018, AID2069, AID2658]; type: functional
[22] = target: T6, Voltage-gated N-type calcium channel alpha-1B subunit/Amyloid beta A4 precursor protein-binding family A member 1 (Homo sapiens, UniProt Q00975+Q02410); assay: disruptors of Mint-PDZ/N-type channel peptide interaction – biochemical, HTRF, set 2, SAR follow-up (AID 434980); type: functional
[23] = target: T6, Voltage-gated N-type calcium channel alpha-1B subunit/Amyloid beta A4 precursor protein-binding family A member 1; assay: disruptors of Mint-PDZ/N-type channel peptide interaction – biochemical, HTRF, SAR follow-up (AID 2489); type: functional
[24] = target: T7, Cytochrome P450 1A2 (Homo sapiens, UniProt P05177);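 also: PubChem cytochrome P450 panel assay, CYP1A2 panel member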
T7 sequence (P05177 whole entry): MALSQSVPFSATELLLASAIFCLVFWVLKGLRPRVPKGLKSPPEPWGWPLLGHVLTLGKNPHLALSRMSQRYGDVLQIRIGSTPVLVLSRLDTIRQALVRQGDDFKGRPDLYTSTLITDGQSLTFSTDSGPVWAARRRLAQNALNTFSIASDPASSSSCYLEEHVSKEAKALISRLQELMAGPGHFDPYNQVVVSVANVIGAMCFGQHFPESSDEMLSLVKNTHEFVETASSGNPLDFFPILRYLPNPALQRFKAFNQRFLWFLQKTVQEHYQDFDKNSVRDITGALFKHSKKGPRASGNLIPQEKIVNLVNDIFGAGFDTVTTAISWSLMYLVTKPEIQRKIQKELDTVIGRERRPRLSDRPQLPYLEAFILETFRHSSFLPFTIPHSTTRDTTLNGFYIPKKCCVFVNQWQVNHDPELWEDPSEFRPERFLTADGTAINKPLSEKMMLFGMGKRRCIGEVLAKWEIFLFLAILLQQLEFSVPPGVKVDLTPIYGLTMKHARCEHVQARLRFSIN

[25] = Fluorescence polarization-based biochemical high throughput dose response assay for activators of the Protein Kinase A-R1A (PKA-R1A) complex. [Related pubchem assays (depositor defined):AID504704, AID504707, AID504799, AID504800]
[26] = Fluorescence polarization-based biochemical high throughput dose response assay for activators of the Protein Kinase A-R2B (PKA-R2B) complex. [Related pubchem assays (depositor defined):AID504700, AID504704, AID504796, AID504797]

T4 sequence (P09923 whole entry): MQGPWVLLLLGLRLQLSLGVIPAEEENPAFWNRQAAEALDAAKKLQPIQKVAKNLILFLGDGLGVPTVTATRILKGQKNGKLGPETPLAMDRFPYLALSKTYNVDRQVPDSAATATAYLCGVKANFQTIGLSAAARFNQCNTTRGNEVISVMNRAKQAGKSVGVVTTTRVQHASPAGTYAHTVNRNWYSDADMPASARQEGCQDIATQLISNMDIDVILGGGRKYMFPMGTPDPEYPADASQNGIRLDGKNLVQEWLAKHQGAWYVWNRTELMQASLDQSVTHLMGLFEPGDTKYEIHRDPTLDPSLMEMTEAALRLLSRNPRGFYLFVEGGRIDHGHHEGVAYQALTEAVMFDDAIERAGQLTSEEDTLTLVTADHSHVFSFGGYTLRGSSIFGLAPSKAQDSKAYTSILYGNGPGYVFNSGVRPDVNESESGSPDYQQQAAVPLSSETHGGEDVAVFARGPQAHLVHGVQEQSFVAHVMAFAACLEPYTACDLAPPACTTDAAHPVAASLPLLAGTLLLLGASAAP
T6 sequence (Q00975 whole entry): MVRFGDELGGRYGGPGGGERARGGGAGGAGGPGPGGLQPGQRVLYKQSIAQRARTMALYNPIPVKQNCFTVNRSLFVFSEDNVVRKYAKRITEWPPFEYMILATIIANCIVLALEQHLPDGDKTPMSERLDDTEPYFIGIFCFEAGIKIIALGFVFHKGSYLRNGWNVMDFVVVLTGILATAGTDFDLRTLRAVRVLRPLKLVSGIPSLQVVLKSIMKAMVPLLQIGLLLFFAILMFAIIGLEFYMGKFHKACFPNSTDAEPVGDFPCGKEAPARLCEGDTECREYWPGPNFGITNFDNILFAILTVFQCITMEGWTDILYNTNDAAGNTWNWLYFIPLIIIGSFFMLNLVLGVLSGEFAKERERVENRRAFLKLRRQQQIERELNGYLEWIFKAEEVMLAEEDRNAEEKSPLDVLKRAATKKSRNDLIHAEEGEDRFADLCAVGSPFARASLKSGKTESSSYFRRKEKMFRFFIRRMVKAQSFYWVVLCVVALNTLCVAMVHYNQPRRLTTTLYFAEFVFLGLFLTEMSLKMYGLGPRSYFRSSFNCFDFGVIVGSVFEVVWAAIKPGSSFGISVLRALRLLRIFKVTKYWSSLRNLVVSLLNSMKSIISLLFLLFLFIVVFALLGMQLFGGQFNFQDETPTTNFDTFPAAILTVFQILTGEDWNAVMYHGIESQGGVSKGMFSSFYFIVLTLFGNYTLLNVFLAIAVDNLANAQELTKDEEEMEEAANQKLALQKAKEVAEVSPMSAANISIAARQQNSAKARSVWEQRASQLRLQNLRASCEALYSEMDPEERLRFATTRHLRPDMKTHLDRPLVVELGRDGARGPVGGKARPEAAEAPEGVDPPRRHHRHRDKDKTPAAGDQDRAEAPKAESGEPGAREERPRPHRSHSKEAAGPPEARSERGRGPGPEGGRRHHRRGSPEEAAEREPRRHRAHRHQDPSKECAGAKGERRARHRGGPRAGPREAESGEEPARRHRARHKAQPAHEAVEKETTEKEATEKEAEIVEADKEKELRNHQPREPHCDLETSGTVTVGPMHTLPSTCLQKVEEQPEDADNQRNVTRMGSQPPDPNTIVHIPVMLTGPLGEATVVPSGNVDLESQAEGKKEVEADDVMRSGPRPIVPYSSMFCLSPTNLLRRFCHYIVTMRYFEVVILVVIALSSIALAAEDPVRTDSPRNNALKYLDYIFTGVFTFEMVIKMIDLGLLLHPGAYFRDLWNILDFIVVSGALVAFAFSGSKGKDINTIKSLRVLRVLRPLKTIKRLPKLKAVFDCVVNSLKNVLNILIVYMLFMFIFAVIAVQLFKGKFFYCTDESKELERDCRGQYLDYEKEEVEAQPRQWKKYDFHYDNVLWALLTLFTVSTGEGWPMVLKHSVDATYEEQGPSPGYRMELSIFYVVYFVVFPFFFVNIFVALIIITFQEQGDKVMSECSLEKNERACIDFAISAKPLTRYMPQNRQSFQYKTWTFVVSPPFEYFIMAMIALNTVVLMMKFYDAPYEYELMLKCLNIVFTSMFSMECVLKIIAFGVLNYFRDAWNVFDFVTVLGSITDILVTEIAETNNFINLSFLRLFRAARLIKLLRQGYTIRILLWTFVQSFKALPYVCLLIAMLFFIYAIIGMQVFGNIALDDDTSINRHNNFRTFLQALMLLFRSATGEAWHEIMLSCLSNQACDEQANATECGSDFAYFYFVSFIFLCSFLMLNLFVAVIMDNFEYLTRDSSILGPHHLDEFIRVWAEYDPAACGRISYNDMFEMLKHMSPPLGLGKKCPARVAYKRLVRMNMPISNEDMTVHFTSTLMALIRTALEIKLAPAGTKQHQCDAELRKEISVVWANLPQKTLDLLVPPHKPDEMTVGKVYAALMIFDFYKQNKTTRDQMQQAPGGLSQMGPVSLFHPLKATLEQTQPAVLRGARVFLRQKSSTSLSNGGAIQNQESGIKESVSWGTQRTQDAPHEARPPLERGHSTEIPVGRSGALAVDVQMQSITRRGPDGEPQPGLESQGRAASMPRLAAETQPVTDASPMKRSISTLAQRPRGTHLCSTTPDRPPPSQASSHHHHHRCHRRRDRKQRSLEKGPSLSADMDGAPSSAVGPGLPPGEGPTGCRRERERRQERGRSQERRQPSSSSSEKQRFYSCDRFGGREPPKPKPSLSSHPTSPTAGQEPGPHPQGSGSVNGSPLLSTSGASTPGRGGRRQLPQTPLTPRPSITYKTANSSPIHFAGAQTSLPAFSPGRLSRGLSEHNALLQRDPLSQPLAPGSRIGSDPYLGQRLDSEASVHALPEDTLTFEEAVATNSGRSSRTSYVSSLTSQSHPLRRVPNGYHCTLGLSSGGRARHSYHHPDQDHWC
T6 sequence (Q02410 whole entry): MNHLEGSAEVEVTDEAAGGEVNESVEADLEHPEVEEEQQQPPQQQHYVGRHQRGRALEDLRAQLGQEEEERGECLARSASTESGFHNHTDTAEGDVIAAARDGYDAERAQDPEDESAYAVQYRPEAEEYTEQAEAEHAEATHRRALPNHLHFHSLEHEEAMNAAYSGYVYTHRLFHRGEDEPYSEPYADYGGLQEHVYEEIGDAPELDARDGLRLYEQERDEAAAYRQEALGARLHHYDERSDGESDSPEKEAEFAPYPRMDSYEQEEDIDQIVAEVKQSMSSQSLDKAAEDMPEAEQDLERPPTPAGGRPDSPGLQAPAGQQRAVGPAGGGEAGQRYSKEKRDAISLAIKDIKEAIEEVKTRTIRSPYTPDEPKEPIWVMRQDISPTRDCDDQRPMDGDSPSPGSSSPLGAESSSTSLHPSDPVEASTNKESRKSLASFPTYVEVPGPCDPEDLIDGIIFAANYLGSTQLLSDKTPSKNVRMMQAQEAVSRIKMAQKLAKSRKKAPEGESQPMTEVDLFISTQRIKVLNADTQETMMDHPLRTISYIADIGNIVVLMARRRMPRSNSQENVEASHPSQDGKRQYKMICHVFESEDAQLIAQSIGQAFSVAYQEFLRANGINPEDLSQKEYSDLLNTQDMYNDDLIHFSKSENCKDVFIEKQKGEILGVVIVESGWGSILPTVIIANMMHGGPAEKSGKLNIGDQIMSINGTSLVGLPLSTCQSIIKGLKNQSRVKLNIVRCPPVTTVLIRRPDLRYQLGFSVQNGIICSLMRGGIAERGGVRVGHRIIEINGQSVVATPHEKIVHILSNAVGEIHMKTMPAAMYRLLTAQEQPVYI
T3 sequence (P02675 whole entry, the tested form may be a part): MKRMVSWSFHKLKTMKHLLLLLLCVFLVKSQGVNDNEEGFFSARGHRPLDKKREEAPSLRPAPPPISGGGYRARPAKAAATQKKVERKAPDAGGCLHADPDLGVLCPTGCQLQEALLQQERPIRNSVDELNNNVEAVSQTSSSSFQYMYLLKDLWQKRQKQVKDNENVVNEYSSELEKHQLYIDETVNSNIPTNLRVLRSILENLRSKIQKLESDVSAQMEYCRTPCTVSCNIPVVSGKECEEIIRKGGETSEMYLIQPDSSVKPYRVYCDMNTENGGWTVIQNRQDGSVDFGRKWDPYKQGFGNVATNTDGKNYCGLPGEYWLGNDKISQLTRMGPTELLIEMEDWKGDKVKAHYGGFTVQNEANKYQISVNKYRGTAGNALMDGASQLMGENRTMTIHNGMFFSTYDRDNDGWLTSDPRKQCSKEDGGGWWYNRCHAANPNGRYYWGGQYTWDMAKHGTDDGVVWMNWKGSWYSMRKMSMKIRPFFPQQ
Chain of UDP-galactopyranose mutase (P9WIQ1 whole entry): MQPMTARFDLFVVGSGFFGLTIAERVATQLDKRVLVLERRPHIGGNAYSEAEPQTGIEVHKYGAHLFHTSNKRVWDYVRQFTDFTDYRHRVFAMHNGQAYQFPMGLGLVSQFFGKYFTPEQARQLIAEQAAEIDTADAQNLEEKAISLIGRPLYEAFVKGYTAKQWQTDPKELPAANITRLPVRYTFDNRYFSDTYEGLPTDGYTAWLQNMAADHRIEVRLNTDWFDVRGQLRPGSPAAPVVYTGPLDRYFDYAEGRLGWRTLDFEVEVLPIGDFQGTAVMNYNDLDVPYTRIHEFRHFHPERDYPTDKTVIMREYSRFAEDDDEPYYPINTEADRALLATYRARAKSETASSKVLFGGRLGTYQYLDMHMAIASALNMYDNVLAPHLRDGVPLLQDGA
Chain of Dual specificity protein phosphatase 3 (P51452 whole entry): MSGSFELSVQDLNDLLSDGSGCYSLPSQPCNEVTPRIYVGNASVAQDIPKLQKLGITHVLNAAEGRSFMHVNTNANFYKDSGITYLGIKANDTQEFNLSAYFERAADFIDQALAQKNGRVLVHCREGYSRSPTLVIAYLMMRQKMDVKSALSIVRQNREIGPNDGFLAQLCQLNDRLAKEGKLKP

## Oc1ccc2ccc3cccc[n+]3c2c1
[1]
  AC50: 1.61 µM (active)
[2]
  EC50: 1.21 µM (active)
[3]
  AC50: 3.84 µM (active)
[4]
  EC50: > 54.7 µM (inactive)
[5]
  EC50: > 54.7 µM (inactive)
[6]
  IC50: > 89.2 µM (inactive)
[7]
  EC50: > 54.7 µM (inactive)
[8]
  IC50: > 83.3 µM (inactive)
[9]
  IC50: > 9.26 µM (active)

## O=C(Nc1ccc2ccccc2c1)C1CC2CCC1C2 (stereo unspecified)
[10]
  EC50: 0.6 µM (active)

## Cc1ccc(O)c(/C=N/NC(=O)c2[nH]ncc2Br)c1
[11]
  EC50: > 100 µM (inactive)
[12]
  EC50: 7.61 µM (active)
[13]
  EC50: 47.6 µM (active)
[14]
  EC50: 49.6 µM (active)
[15]
  AC50: 33.5 µM (active)

## CC1CCN(C(=O)Cn2c3ccc(F)cc3c3nc4n(c(=O)c32)CCCS4)CC1
[16]
  AC50: 2.96 µM (active)
[17]
  AC50: 41.8 µM (active)

## COc1ccc(C(=O)Nc2cc(C)nn2-c2nc3ccccc3s2)cc1
[18]
  IC50: 36.3 µM (active)

## COc1ccc(N2C(=O)C3C(c4ccc(OC)cc4O)NC(Cc4ccccc4)(C(=O)O)C3C2=O)cc1 (stereo unspecified)
[19]
  IC50: > 67.5 µM (inactive)
[20]
  IC50: > 67.5 µM (inactive)

## COc1ccc(CNC(=O)COC(=O)c2cc(-c3ccco3)nc3ccccc23)cc1OC
[21]
  IC50: 6.04 µM (active)
[22]
  IC50: 5.49 µM (active)
[23]
  IC50: > 56.8 µM (inactive)

## C[C@@H]1COc2c(N3CCN(C)CC3)c(F)cc3c(=O)c(C(=O)O)cn1c23 [DEXTROFLOXACINE]
[24]
  AC50: inactive

## Nc1nc(O)c2nc(Br)n([C@@H]3O[C@@H]4COP(=O)(O)O[C@H]4[C@H]3O)c2n1
[25]
  EC50: 7.83 µM (active)
[26]
  EC50: 2.15 µM (active)
